Assay results reported in patent US20250296953A1, “3,4-THIAZOLO-STEROIDS AND METHODS OF MAKING AND USING THE SAME” (Arkansas State University - Jonesboro, priority 2018, published 2025).
Read-outs that look alike come from different tables or passages of the source.

Key:
[1] = tested on: 60 different human tumor cell lines; conditions: for CC50: read-out: LC50
SR = assay: NCI 60 five dose screen
SF-295 = assay: NCI 60 one dose screen; type: cell-based, human; conditions: one dose; CNS Cancer; SF-295
[2] = MDA-MB-435 (Melanoma), five dose
[3] = MDA-MB-468 (Breast Cancer), five dose
[4] = NCI-H23 (Non-small Cell Lung Cancer), five dose
[5] = NCI-H226 (Non-small Cell Lung Cancer), five dose
[6] = NCI-H322M (Non-small Cell Lung Cancer), five dose
[7] = NCI-H460 (Non-small Cell Lung Cancer), five dose
[8] = NCI-H522 (Non-small Cell Lung Cancer), five dose
[9] = NCI/ADR-RES (Ovarian Cancer), five dose
[10] = OVCAR-3 (Ovarian Cancer), five dose
[11] = OVCAR-4 (Ovarian Cancer), five dose
[12] = OVCAR-5 (Ovarian Cancer), five dose
[13] = OVCAR-8 (Ovarian Cancer), five dose
[14] = PC-3 (Prostate Cancer), five dose
[15] = RXF 393 (Renal Cancer), five dose
[16] = SK-MEL-28 (Melanoma), five dose
[17] = SK-OV-3 (Ovarian Cancer), five dose
[18] = SN12C (Renal Cancer), five dose
[19] = SW-620 (Colon Cancer), five dose
[20] = T-47D (Breast Cancer), five dose
[21] = TK-10 (Renal Cancer), five dose
[22] = UO-31 (Renal Cancer), five dose

Substance: (1S,2R,13R,14S,18S)-7-(3-fluoroanilino)-2,18-dimethyl-6-thia-8-azapentacyclo[11.7.0.02,10.05,9.014,18]icosa-5(9),7,10-trien-17-one [IIa.8]
- GI50 [1, 2]: 2.74 µM
- TGI [1, 2]: 1.31E−5
- GI50 [1, 3]: 2.01 µM
- TGI [1, 3]: 4.18E−6
- GI50 ([1]; MOLT-4 (Leukemia), five dose): 1.68 µM
- TGI ([1]; MOLT-4 (Leukemia), five dose): 2.83E−5
- GI50 [1, 4]: 2.27 µM
- TGI [1, 4]: 9.08E−6
- GI50 [1, 5]: 2.35 µM
- TGI [1, 5]: 5.70E−6
- GI50 [1, 6]: 3.6 µM
- TGI [1, 6]: 2.89E−6
- GI50 [1, 7]: 2.52 µM
- TGI [1, 7]: 5.58E−6
- GI50 [1, 8]: 1.63 µM
- TGI [1, 8]: 3.06E−6
- GI50 [1, 9]: 2.81 µM
- TGI [1, 9]: 1.72E−5
- GI50 [1, 10]: 1.72 µM
- TGI [1, 10]: 3.30E−6
- GI50 [1, 11]: 2.71 µM
- TGI [1, 11]: >1.00E−4
- GI50 [1, 12]: 2.73 µM
- TGI [1, 12]: 1.80E−5
- GI50 [1, 13]: 2.79 µM
- TGI [1, 13]: 7.98E−6
- GI50 [1, 14]: 1.88 µM
- TGI [1, 14]: 3.87E−6
- GI50 [1, 15]: 1.45 µM
- TGI [1, 15]: 3.25E−6
- GI50 ([1]; SF-268 (CNS Cancer), five dose): 3.09 µM
- TGI ([1]; SF-268 (CNS Cancer), five dose): 1.11E−5
- GI50 ([1]; SK-MEL-2 (Melanoma), five dose): 1.86 µM
- TGI ([1]; SK-MEL-2 (Melanoma), five dose): 5.19E−5
- GI50 ([1]; SK-MEL-5 (Melanoma), five dose): 2.02 µM
- TGI ([1]; SK-MEL-5 (Melanoma), five dose): 4.32E−6
- GI50 [1, 16]: 1.52 µM
- TGI [1, 16]: 4.27E−6
- GI50 [1, 17]: 2.33 µM
- TGI [1, 17]: 6.10E−6
- GI50 [1, 18]: 2.36 µM
- TGI [1, 18]: 6.02E−6
- GI50 ([1]; SNB-19 (CNS Cancer), five dose): 2.33 µM
- TGI ([1]; SNB-19 (CNS Cancer), five dose): 5.69E−6
- GI50 ([1]; SNB-75 (CNS Cancer), five dose): 1.52 µM
- TGI ([1]; SNB-75 (CNS Cancer), five dose): 4.94E−6
- GI50 [1, 19]: 2.33 µM
- TGI [1, 19]: 4.99E−6
- GI50 [1, 20]: 2.22 µM
- TGI [1, 20]: 6.95E−6
- GI50 [1, 21]: 1.97 µM
- TGI [1, 21]: 4.15E−6
- GI50 ([1]; U251 (CNS Cancer), five dose): 1.59 µM
- TGI ([1]; U251 (CNS Cancer), five dose): 3.68E−6
- GI50 ([1]; UACC-62 (Melanoma), five dose): 1.54 µM
- TGI ([1]; UACC-62 (Melanoma), five dose): 3.12E−6
- GI50 ([1]; UACC-257 (Melanoma), five dose): 5.47 µM
- TGI ([1]; UACC-257 (Melanoma), five dose): 6.45E−5
- GI50 [1, 22]: 1.67 µM
- TGI [1, 22]: 3.59E−6
- GI50 ([1]; four of six central nervous system (CNS) cell lines): < 2 µM
- CC50 ([1]; 786-0 (Renal Cancer), five dose): 5.61 µM
- CC50 ([1]; A498 (Renal Cancer), five dose): > 100 µM
- CC50 ([1]; A549/ATCC (Non-small Cell Lung Cancer), five dose): > 100 µM
- CC50 ([1]; ACHN (Renal Cancer), five dose): 5.92 µM
- CC50 ([1]; BT-549 (Breast Cancer), five dose): 8.49 µM
- CC50 ([1]; CAKI-1 (Renal Cancer), five dose): 38.1 µM
- CC50 ([1]; CCRF-CEM (Leukemia), five dose): > 100 µM
- CC50 ([1]; COLO 205 (Colon Cancer), five dose): 24.4 µM
- CC50 ([1]; DU-145 (Prostate Cancer), five dose): 27.4 µM
- CC50 ([1]; EKVX (Non-small Cell Lung Cancer), five dose): > 100 µM
- CC50 ([1]; HCC-2998 (Colon Cancer), five dose): 88 µM
- CC50 ([1]; HCT-15 (Colon Cancer), five dose): 14.7 µM
- CC50 ([1]; HCT-116 (Colon Cancer), five dose): 6.58 µM
- CC50 ([1]; HL-60(TB) (Leukemia), five dose): > 100 µM
- CC50 ([1]; HOP-62 (Non-small Cell Lung Cancer), five dose): 24.5 µM
- CC50 ([1]; HOP-92 (Non-small Cell Lung Cancer), five dose): 7.73 µM
- CC50 ([1]; HT29 (Colon Cancer), five dose): 8.28 µM
- CC50 ([1]; IGROV1 (Ovarian Cancer), five dose): 7.76 µM
- CC50 ([1]; K-562 (Leukemia), five dose): > 100 µM
- CC50 ([1]; KM12 (Colon Cancer), five dose): 79.2 µM
- CC50 ([1]; LOX IMVI (Melanoma), five dose): 6.16 µM
- CC50 ([1]; M14 (Melanoma), five dose): 81.4 µM
- CC50 ([1]; MALME-3M (Melanoma), five dose): 26.7 µM
- CC50 ([1]; MCF7 (Breast Cancer), five dose): 7.87 µM
- CC50 ([1]; MDA-MB-231/ATCC (Breast Cancer), five dose): 9.99 µM
- CC50 [1, 2]: > 100 µM
- CC50 ([1]; MOLT-4 (Leukemia), five dose): > 100 µM
- CC50 [1, 4]: 77.7 µM
- CC50 [1, 5]: 81.5 µM
- CC50 [1, 7]: > 100 µM
- CC50 [1, 8]: 5.75 µM
- CC50 [1, 9]: > 100 µM
- CC50 [1, 10]: 6.34 µM
- CC50 [1, 11]: > 100 µM
- CC50 [1, 12]: > 100 µM
- CC50 [1, 13]: 68.7 µM
- CC50 [1, 14]: 7.94 µM
- CC50 [1, 15]: 7.31 µM
- CC50 ([1]; SF-268 (CNS Cancer), five dose): > 100 µM
- CC50 ([1]; SK-MEL-2 (Melanoma), five dose): 26.7 µM
- CC50 ([1]; SK-MEL-5 (Melanoma), five dose): 9.24 µM
- CC50 [1, 17]: > 100 µM
- CC50 [1, 18]: 36 µM
- CC50 ([1]; SNB-19 (CNS Cancer), five dose): 22.7 µM
- CC50 ([1]; SNB-75 (CNS Cancer), five dose): > 100 µM
- CC50 [1, 19]: > 100 µM
- CC50 [1, 20]: > 100 µM
- CC50 [1, 21]: 8.72 µM
- CC50 ([1]; U251 (CNS Cancer), five dose): 8.51 µM
- CC50 ([1]; UACC-62 (Melanoma), five dose): 6.31 µM
- CC50 ([1]; UACC-257 (Melanoma), five dose): > 100 µM
- CC50 [1, 22]: 7.69 µM
- GI50 (SR; SR (Leukemia), five dose): 0.859 µM
- 50% growth inhibition (GI50) (SR; leukemia cell line SR): submicromolar
- CC50 (SR; read-out: LC50, SR (Leukemia), five dose): > 100 µM
- Growth Percent (SF-295): −18.79%
